Laboratory results as given in ChEMBL document CHEMBL1151328, “Novel cytotoxic acylated oligorhamnosides from Mezzettia leptopoda” (1998).
≈ marks a conversion by molar mass, not a printed value. Calls of active or inactive are those of the source. The calls are words filed in the database; no cut-off is given here.

Experiments:
KB [1] = assay: Cytotoxicity against human drug-resistant KB cells in presence of 1 ug/mL vinblastine; type: functional; conditions: read-out: ED50 (the source's name)
KB [2] = assay: Cytotoxicity against human KB cells; type: functional; conditions: read-out: ED50 (the source's name)
KB [3] = assay: Cytotoxicity against human drug-resistant KB cells in absence of vinblastine; type: functional; conditions: read-out: ED50 (the source's name)
Lu1 = assay: Cytotoxicity against human Lu1 cells; type: functional; conditions: read-out: ED50 (the source's name)
Col2 = assay: Cytotoxicity against human Col2 cells; type: functional; conditions: read-out: ED50 (the source's name)
ASK = assay: Antimitotic activity in rat ASK cells at 100 ug/mL; type: functional, cell-based
LNCaP = assay: Cytotoxicity against human LNCAP cells; type: functional; conditions: read-out: ED50 (the source's name)
[4] = Cytotoxicity against human BC1 cells; type: functional; conditions: read-out: ED50 (the source's name)

SMILES	EC50 (KB [1]) [µg/mL]	EC50 (KB [2]) [µg/mL]	EC50 (KB [3]) [µg/mL]	EC50 (Lu1) [µg/mL]	EC50 (Col2) [µg/mL]	Activity (ASK)	EC50 (LNCaP) [µg/mL]	EC50 [4] [µg/mL]
CCCCCCCCO[C@@H]1O[C@@H](C)[C@H](OC(=O)CCCCC)[C@@H](O[C@@H]2O[C@@H](C)[C@H](OC(C)=O)[C@@H](O[C@@H]3O[C@@H](C)[C@H](OC(C)=O)[C@@H](O)[C@H]3OC(C)=O)[C@H]2OC(C)=O)[C@H]1O [MEZZETTIASIDE 2]	> 20	6.2 (≈ 7.43 µM)	> 20	8.6 (≈ 10.3 µM)	4.3 (≈ 5.15 µM)	inactive	> 20	> 20
CCCCCCCCO[C@@H]1O[C@@H](C)[C@H](OC(=O)CCCCC)[C@@H](O[C@@H]2O[C@@H](C)[C@H](OC(C)=O)[C@@H](O[C@@H]3O[C@@H](C)[C@H](OC(C)=O)[C@@H](OC(C)=O)[C@H]3O)[C@H]2OC(C)=O)[C@H]1O [MEZZETTIASIDE 3]	> 20	14.3 (≈ 17.1 µM)	> 20	11.8 (≈ 14.1 µM)	4.9 (≈ 5.87 µM)	inactive	> 20	> 20
CCCCCCCCO[C@@H]1O[C@@H](C)[C@H](OC(=O)CCCCC)[C@@H](O[C@@H]2O[C@@H](C)[C@H](OC(C)=O)[C@@H](O[C@@H]3O[C@@H](C)[C@H](OC(C)=O)[C@@H](O)[C@H]3O)[C@H]2OC(C)=O)[C@H]1O [MEZZETTIASIDE 4]	> 20	15.4 (≈ 19.4 µM)	> 20	19.4 (≈ 24.5 µM)	6.2 (≈ 7.82 µM)	inactive	> 20	> 20
CCCCCCCCO[C@@H]1O[C@@H](C)[C@H](OC(=O)CCCCC)[C@@H](O[C@@H]2O[C@@H](C)[C@H](OC(C)=O)[C@@H](O[C@@H]3O[C@@H](C)[C@H](O)[C@@H](O)[C@H]3OC(C)=O)[C@H]2OC(C)=O)[C@H]1O [MEZZETTIASIDE 8]	> 20	> 20	> 20	19.7 (≈ 24.8 µM)	8.2 (≈ 10.3 µM)	inactive	> 20	> 20
CCCCCCCCO[C@@H]1O[C@@H](C)[C@H](OC(=O)CCCCC)[C@@H](O[C@@H]2O[C@@H](C)[C@H](O)[C@@H](OC(C)=O)[C@H]2OC(C)=O)[C@H]1O [MEZZETTIASIDE 9]	> 20	11.3 (≈ 18.7 µM)	> 20	5.4 (≈ 8.93 µM)	> 20	inactive	> 20	> 20
CCCCCCCCO[C@@H]1O[C@@H](C)[C@H](OC(=O)CCCCC)[C@@H](O[C@@H]2O[C@@H](C)[C@H](OC(C)=O)[C@@H](OC(C)=O)[C@H]2OC(C)=O)[C@H]1O [MEZZETTIASIDE 11]	5.6	12.7 (≈ 19.6 µM)	> 20	6.1 (≈ 9.43 µM)	9 (≈ 13.9 µM)	inactive	> 20	> 20
CCCCCCCCO[C@@H]1O[C@@H](C)[C@H](OC(=O)CCCCC)[C@@H](O[C@@H]2O[C@@H](C)[C@H](OC(C)=O)[C@@H](O)[C@H]2OC(C)=O)[C@H]1O [MEZZETTIASIDEIDE 10]	> 20	> 20	> 20	> 20	> 20	inactive	> 20	> 20
